Values joined by “and” are separate entries in the source; they are usually repeats but may differ in a detail not shown here. Equal values may be shown once.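 The compound was tested at five concentrations on cells cultured in 96-well plates, with a 48-hour exposure period. At the GI50, growth is halved. TGI: total growth inhibition.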
Key:
Assay in all cases: NCI anticancer screen, dose series, 48 h
MCF7 breast = system: MCF7 breast
SR leukemia = system: SR leukemia
A498 renal = system: A498 renal
KM20L2 colon = system: KM20L2 colon
SK-MEL-28 melanoma = system: SK-MEL-28 melanoma
PC-3 prostate = system: PC-3 prostate
DMS 114 small cell lung = system: DMS 114 small cell lung
SF-295 CNS = system: SF-295 CNS
T-47D breast = system: T-47D breast
RPMI-8226 leukemia = system: RPMI-8226 leukemia

SMILES	TGI (MCF7 breast) [µM]	GI50 (SR leukemia) [µM]	TGI (SR leukemia)	GI50 (A498 renal) [µM]	TGI (A498 renal)	TGI (KM20L2 colon)	GI50 (SK-MEL-28 melanoma) [µM]	TGI (SK-MEL-28 melanoma)	TGI (PC-3 prostate) [µM]	TGI (DMS 114 small cell lung)	GI50 (SF-295 CNS)	TGI (SF-295 CNS)	TGI (T-47D breast) [µM]	TGI (RPMI-8226 leukemia)	GI50 (MCF7 breast) [µM]	GI50 (PC-3 prostate) [µM]	GI50 (T-47D breast) [µM]	GI50 (DMS 114 small cell lung)
Cc1ccc2oc(=O)c3c(O)c4cccc(OC5OC(C)C6O[C@@H](c7ccccc7)OC6C5OC5OC(C)C(O)C(O)C5O)c4c4oc(=O)c1c2c34 (stereo not given in full)	2.48	0.0174	< 0.0472 µM	0.167	1.22 µM and 0.95 µM	4.08 µM	0.331	1.88 µM and 2.01 µM	1.4	3.16 µM	0.0449 µM	0.523 µM and 1.56 µM	1.23	0.888 µM				
Cc1ccccc1-n1c(=S)[nH]c2c(sc(=O)n2-c2ccccc2C)c1=O			> 100 µM		> 100 µM	> 100 µM		> 100 µM		> 100 µM		> 100 µM		> 100 µM				
CC1=C(CO)C(=O)O[C@@H]([C@@H](C)[C@H]2CC[C@H]3[C@@H]4C[C@H]5O[C@]56[C@@H](O)C=CC(=O)[C@]6(C)[C@H]4CC[C@]23C)C1	2.43			0.408	1.53 µM	1.47 µM		2.29 µM	2.46	1.95 µM		3 µM	2.5	37.5 µM	0.345	1.03	0.5	
CS(=O)(=O)c1ccc(COP(N)(=O)N(CCCl)CCCl)cc1 (stereo not given)			> 100 µM		> 100 µM	> 100 µM		> 100 µM		> 100 µM		> 100 µM		> 100 µM				
CCCCNS(=O)(=O)c1ccc(-c2ccc3c(c2)-c2ccc(S(=O)(=O)NCCCC)cc2S3(=O)=O)cc1			> 100 µM		26.6 µM	15.1 µM		29.7 µM		> 100 µM		45.1 µM		> 100 µM				
CC(=O)OCC1OC(n2c(=O)[nH]c(=O)c3n[nH]nc32)C(OC(C)=O)C(OC(C)=O)C1OC(C)=O (stereo not given)			> 100 µM		> 100 µM	> 100 µM		> 100 µM		> 100 µM		> 100 µM		> 100 µM				
CCCCCCC(=O)C/C(CCC(=O)N(Cc1ccccc1)Cc1ccccc1)=N\NC(N)=O			> 100 µM		> 100 µM	> 100 µM		> 100 µM		> 100 µM		> 100 µM		> 100 µM				
C=CCC12CC(=O)CCC1c1ccc(OC)cc1C2=O (stereo not given)			> 100 µM		> 100 µM	> 100 µM		> 100 µM		> 100 µM		> 100 µM		> 100 µM				
O=C1C(Cl)=C(Cl)C(=O)N1c1ccc(Cl)c(Cl)c1Cl			68 µM		> 100 µM	> 100 µM		> 100 µM		> 100 µM		> 100 µM		> 100 µM				
Cc1ccc(SSCC(O)C(O)CSSc2ccc(C)cc2)cc1 (stereo not given)			15.7 µM and 23.7 µM		18 µM	24.2 µM and 26.6 µM		26.8 µM and 28.6 µM		5.14 µM and 20.4 µM	4.31 µM and 12.6 µM	16.4 µM and 26.1 µM		12.8 µM and 22 µM				2.07 µM and 7.05 µM
